From patent US9745328B2, “Flap modulators” (JANSSEN PHARMACEUTICA NV, priority 2013, dated 2017)
Counter-ions that a name gives are not always drawn. Like-named read-outs stand apart in the source and are kept apart here.

Legend:
[1] = tested on: leukotriene pathway in human whole blood (LTB4); assay: Human whole blood assay (LTB4 levels after calcium ionophore A23187 stimulation); assay type: cell-based; details: read-out: Human Whole Blood LTB4 IC50 1:1
Method: The ability of the compounds of the present invention to treat a FLAP-mediated disease and/or disorder, or associated symptoms or complications thereof, was determined using the following procedures. Binding assay data represent the average value obtained from two different assay plates, with samples run in duplicate on each plate. Human whole blood assay data represent a single replicate on an assay plate using whole blood from at least one healthy donor.
An in vitro cellular assay was performed using human whole blood collected in heparin-containing tubes, which was used to test the ability of compounds to modulate the leukotriene pathway in human whole blood. The blood was diluted 1:1 in RPMI medium, pre-incubated for 15 min at 37° Celsius with test compounds at various concentrations, and then stimulated with calcium ionophore, A23187 (7 μg/mL), for 30 min at 37° Celsius. The samples were then centrifuged and plasma was removed. The plasma was diluted in assay buffer and LTB4 levels were measured using a commercial kit (Enzo Life Sciences). The concentration of each compound that was required for half-maximal inhibition (modulation) of recombinant enzyme activity (IC50) was calculated by a 4-parameter equation using the program GraphPad Prism (GraphPad software).

human FLAP = human FLAP (Homo sapiens (Human), UniProt P20292); assay: FLAP binding assay (HTRF format)
How it was run: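 Reported data take the mean of two different plates carrying duplicate samples and use the HTRF ratio as the measured signal.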

[2] = Homo sapiens, human whole blood diluted 1:1, A23187 stimulation, Table 6 (additional runs)
[3] = human FLAP wild type, Table 6 (additional runs)
[4] = Table 6 (additional runs), human FLAP wild type
[5] = Homo sapiens, Table 6 (additional runs), human whole blood diluted 1:1, A23187 stimulation
[6] = Homo sapiens, human whole blood diluted 1:1 in RPMI, A23187 stimulation, LTB4

human FLAP, sequence (P20292 whole entry): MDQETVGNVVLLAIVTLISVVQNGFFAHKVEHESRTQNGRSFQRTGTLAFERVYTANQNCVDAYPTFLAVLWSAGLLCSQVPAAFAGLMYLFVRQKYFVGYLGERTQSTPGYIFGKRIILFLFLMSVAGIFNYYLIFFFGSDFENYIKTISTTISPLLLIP

Row | SMILES | Ki (human FLAP; [3]) [nM] | IC50 [1, 5] [nM] | other results
1 | C[C@@H](NS(=O)(=O)c1ccccc1-c1ccc(-c2cnc(N)cn2)c(F)c1)C(F)(F)F [Example 20, (S)-4′-(5-Aminopyrazin-2-yl)-3′-fluoro-N-[(S)-2,2,2-trifluoro-1-methylethyl]biphenyl-2-sulfonamide] | – | – | IC50 ([1]; Table 6 (additional runs), human whole blood diluted 1:1, A23187 stimulation): 8.5 nM; Ki (human FLAP; [4]): 0.9 nM
2 | C[C@@H](CO)NS(=O)(=O)c1ccccc1-c1ccc(-c2cnc(N)cn2)c(F)c1 [Example 25, (R)-4′-(5-Aminopyrazin-2-yl)-3′-fluoro-N-[(1R)-2-hydroxy-1-methylethyl]piphenyl-2-sulfonamicie] | – | 26.3 | –
3 | CCCS(=O)(=O)Nc1ccccc1-c1ccc(-c2cnc(N)cn2)c(F)c1 [Example 36, N-[4′-(5-Aminopyrazin-2-yl)-3′-fluorobiphenyl-2-yl]propane-1-sulfonamide] | – | 137 | Ki (human FLAP; [4]): 8.1 nM
4 | Nc1cnc(-c2ccc(-c3ccccc3S(=O)(=O)N3CCCCC3)cc2F)cn1 [Example 43, 5-[3-fluoro-2′-(piperidin-1-ylsulfonyl)biphenyl-4-yl]pyrazin-2-amine] | – | 38.1 | Ki (human FLAP; [4]): 3 nM
5 | CN1CCN(S(=O)(=O)c2ccccc2-c2ccc(-c3cnc(N)cn3)c(F)c2)CC1 [Example 54, 5-{3-Fluoro-2′-[(4-methylpiperazin-1-yl)sulfonyl]biphenyl4-yl}pyrazin-2-amine] | – | 41.3 | Ki (human FLAP; [4]): 24.9 nM
6 | N#CC1CCN(S(=O)(=O)c2ccccc2-c2ccc(-c3cnc(N)cn3)c(F)c2)CC1 [Example 64, 1-{[4′-(5-Aminopyrazin-2-yl)-3′-fluorobiphenyl-2-yl]sulfonyl}piperidine-4-carbonitrile] | – | 13.1 | Ki (human FLAP; [4]): 1.9 nM
7 | Nc1cnc(-c2ccc(-c3ccccc3S(=O)(=O)N3CCC[C@@H]3CO)cc2F)cn1 [Example 91, (R)-(1-((4′-(5-aminopyrazin-2-yl)-3′-fluoro-[1,1′-biphenyl]-2-yl)sulfonyl)pyrrolidin-2-yl)methanol] | – | 38.3 | Ki (human FLAP; [4]): 4.7 nM
8 | Nc1cnc(-c2ccc(-c3ccccc3S(=O)(=O)N3CC[C@@H](N)C3)cc2F)cn1 [Example 92, (R)-5-(2′-((3-aminopyrrolidin-1-yl)sulfonyl)-3-fluoro-[1,1′-biphenyl]-4-yl)pyrazin-2-amine] | – | 309 | –
9 | Nc1cnc(-c2ccc(-c3ccccc3S(=O)(=O)NC[C@H](O)c3ccccc3)cc2F)cn1 [Example 117, (R)-4′-(5-aminopyrazin-2-yl)-3′-fluoro-N-(2-hydroxy-2-phenylethyl)-[1,1′-biphenyl]-2-sulfonamide] | – | 6.6 | Ki (human FLAP; [4]): 0.7 nM
10 | C[C@@H](CO)NS(=O)(=O)c1ccccc1-c1ccc(-c2ccc(N)nc2)c(F)c1 [Example 347, (S)-4′-(6-aminopyridin-3-yl)-3′-fluoro-N-(1-hydroxypropan-2-yl)-[1,1′-biphenyl]-2-sulfonamide] | – | 161 | IC50 [1, 6]: 161 nM
11 | CC(C)S(=O)(=O)c1ncccc1-c1ccc(-c2cnc(N)cn2)c(F)c1 [Example 395, 5-(2-Fluoro-4-{2-[(1-methylethyl)sulfonyl]pyridin-3-yl}phenyl)pyrazin-2-amine] | – | – | IC50 [1, 2]: 26.9 nM
12 | Nc1cnc(-c2ccc(-c3ccccc3C(=O)N3CCS(=O)(=O)CC3)cc2F)cn1 [Example 509, 5-{2′-[(1,1-Dioxidathiomorpholin-4-yl)carbonyl]-3-fluorobiphenyl-4-yl}pyrazin-2-amine] | – | – | IC50 [1, 2]: 160 nM
13 | Nc1ccnc(Oc2ccccc2-c2ccc(-c3cnc(N)nc3)c(F)c2)n1 [Example 529] | – | – | IC50 [1, 2]: 79.6 nM
14 | Nc1cnc(-c2ccc(-c3ccccc3S(=O)(=O)NCC3(O)CNC3)cc2F)cn1 [Example 664] | – | – | IC50 [1, 2]: > 1000 nM; IC50 [1, 6]: > 1000 nM
15 | C[C@H](NS(=O)(=O)c1ccccc1-c1ccc(-c2cnc(N)nc2)nc1)C(F)(F)F [Example 685, 2-[6-(2-Aminopyrimidin-5-yl)pyridin-3-yl]-N-[(1S)-2,2,2-trifluoro-1-methylethyl]benzenesulfonamide trifluoroacetic acid salt] | 59.2 | – | –
16 | Nc1cnc(-c2ccc(-c3ccc(Br)cc3F)cc2F)cn1 [Example 696, 5-(4′-Bromo-2′,3-difluoroblphenyl-4-yl)pyrazin-2-amine] | 141 | – | –
17 | N#Cc1ccccc1-c1ccc(-c2cnc(N)cn2)c(F)c1 [Example 701, 4′-(5-Aminopyrazin-2-yl)-3′-fluorobiphenyl-2-carbonitrile] | 132 | – | –
18 | C[C@H]1COCCN1C(=O)c1ccccc1-c1ccc(-c2cnc(N)cn2)c(F)c1 [Example 774, 5-(3-Fluoro-2′-{[(3S)-3-methylmorpholin-4-yl]carbonyl}biphenyl-4-yl)pyrazin-2-amine] | 1300 | – | –
19 | C[C@@H]1COCCN1C(=O)c1ccccc1-c1ccc(-c2cnc(N)cn2)c(F)c1 [Example 775, 5-(3-Fluoro-2′-{[(3R)-3-methylmorpholin-4-yl]carbonyl}biphenyyl-4-yl)pyrazin-2-amine] | 30.4 | – | –
20 | C[C@H]1CN(C(=O)c2ccccc2-c2ccc(-c3cnc(N)cn3)c(F)c2)CCO1 [Example 776, 5-(3-Fluoro-2′-{[(2S)-2-methylmorpholin-4-yl]carbonyl}biphenyl-4-yl)pyrazin-2-amine] | 150 | – | –
21 | C[C@H](NC(=O)c1cc(C(F)(F)F)ccc1-c1ccc(-c2cnc(N)nc2)c(F)c1)C(F)(F)F [Example 788, 2-[4-(2-Aminopyrimidin-5-yl)-3-fluoro-phenyl]-5-(trifuoromethyl)-N-[(1S)-2,2,2-trifluoro-1-methyl-ethyl]enzamide] | – | – | IC50 [1, 2]: 1800 nM
22 | CC(C)(C)C(=O)Nc1ncccc1-c1ccc(-c2cnc3[nH]ccc3c2)c(F)c1 [Example 802, N-{3-[3-Fluoro-4-(1H-pyrrolo[2,3-b]pyridin-5-yl)phenyl]pyridin-2-yl}-2,2-dimethylpropanamide] | – | – | IC50 [1, 2]: > 1000 nM
23 | Nc1cnc(-c2ccc(-c3ccccc3-c3ccc(N)nn3)cc2F)cn1 [Example 863] | – | – | IC50 [1, 2]: 140 nM

Now from value to molecule, other results behind:

Row | Ki (human FLAP; [3]) [nM] | IC50 [1, 5] [nM] | SMILES | other results
24 | 57.9 | – | CC(O)CN1CCC(S(=O)(=O)c2ncccc2-c2ccc(-c3cnc(N)cn3)c(F)c2)CC1 (racemic) [Example 905, 1-[4-({3-[4-(5-Aminopyrazin-2-yl)-3-fluorophenyl]pyridin-2-yl}sulfonyl)piperidin-1-yl]propan-2-ol] | IC50 [1, 2]: 52.9 nM
25 | – | 177 | Nc1cnc(-c2ccc(-c3ccccc3S(=O)(=O)N3CCNCC3)cc2F)cn1 [Example 46, 5-[3-Fluoro-2′-(piperazin-1-ylsulfonyl)biphenyl-4-yl]pyrazin-2-amine] | Ki (human FLAP; [4]): 61.5 nM
26 | – | 16.8 | Nc1cnc(-c2ccc(-c3ccccc3S(=O)(=O)N3CCC(O)CC3)cc2F)cn1 [Example 67, 1-{[4′-(5-Aminopyrazin-2-yl)-3′-fluorobiphenyl-2-yl]sulfonyl}piperidin-4-ol] | Ki (human FLAP; [4]): 4.2 nM
27 | – | 10.9 | Nc1cnc(-c2ccc(-c3ccccc3S(=O)(=O)N3CCC(CO)CC3)cc2F)cn1 [Example 68, (1-{[4′-(5-Aminopyrazin-2-yl)-3′-fluorobiphenyl-2-yl]sulfonyl}piperidin-4-yl)methanol] | Ki (human FLAP; [4]): 1.1 nM
28 | – | 118 | C[C@H](O)CNS(=O)(=O)c1ccccc1-c1ccc(-c2cnc(N)nc2)c(F)c1 [Example 279, 4′-(2-Aminopyrimidin-5-yl)-3′-fluoro-N-[(2S)-2-hydroxypropyl]biphenyl-2-sulfonamide trifluoroacetic acid salt] | –
29 | > 10000 | – | Nc1cnc(-c2ccc(-c3cccnc3OC3CCNCC3)cc2F)cn1 [Example 645] | –
30 | > 10000 | – | Nc1ncc(-c2ccc(-c3cccnc3OC3CCNCC3)cc2F)cn1 [Example 646, 5-{2-Fluoro-4-[2-(piperidin-4-yloxy)pyridin-3-yl]phenyl}pyrimidin-2-amine] | –
31 | 227 | – | Nc1cnc(-c2ccc(-c3cccnc3OC3CCS(=O)(=O)CC3)cc2F)cn1 [Example 647, 5-(4-{2-[(1,1-Dioxidotetrahydro-2H-thiopyran4-yl)oxy]pyridin-3-yl}-2-fluorophenyl)pyrazin-2-amine] | –
32 | 834 | – | Nc1ncc(-c2ccc(-c3cccnc3OC3CCS(=O)(=O)CC3)cc2F)cn1 [Example 648, 5-(4-{2-[(1,1-Dioxidotetranydro-2H-thiopyran-4-yl)oxy]pyridin-3-yl}-2-fluorophenyl)pyrimidin-2-amine] | –
33 | 1 | – | CC(C)(C)NS(=O)(=O)c1ccccc1-c1cnc(-c2cnc(N)nc2)c(F)c1 [Example 675, 2-[6-(2-Aminopyrimidin-5-yl)-5-fluoropyridin-3-yl]-N-tert-butylbenzenesulfonamide] | –
34 | 1620 | – | C[C@H]1CN(C(=O)c2ccccc2-c2ccc(-c3cnc(N)nc3)c(F)c2)CCO1 [Example 777, 5-(3-Fluoro-2′-{[(2S)-2-methylmorpholin-4-yl]carbonyl}biphenyl-4-yl)pyrimidin-2-amine] | –
35 | 74.3 | – | Nc1ncc(-c2ccc(-c3cccnc3S(=O)(=O)C3CCS(=O)(=O)CC3)cc2F)cn1 [Example 819, 4-((3-(4-(2-aminopyrimidin-5-yl)-3-fluorophenyl)pyridine-2-yl)sulfonyl)tetrahydro-2H-thiopyran 1,1-dioxide] | –
